Experimental data from PMC8717366, “Synthesis and Pharmacological Characterization of Visabron, a Backbone Cyclic Peptide Dual Antagonist of α4β1 (VLA-4)/α9β1 Integrin for Therapy of Multiple Sclerosis” (JACS Au, 2021).
Numbered stars: 1 amine (or outer) side, 2 acyl side, 3 side chain; on linkers, the order of the positions; unused ones are H or OH. Bridge positions count the residues as written; N and C are the ends. Square brackets hold non-standard residues; d marks the D form. Peptide text beside a SMILES is read from it. CO = O=C([*:1])[*:2]; Nlys = NCCCCNCC(=O)O

Legend:
[1] = system: cyclooxygenase (COX) enzymes; assay: SafetyScreen44 enzyme inhibition, cyclooxygenases; assay type: biochemical; details: 1 mM; Figure 6
Description: (§1) Screening of potentially significant off-target effects to binding and enzyme targets was performed via SafetyScreen44 offered by Eurofins Cerep-Panlabs. Visabron c (4–4) was tested at 1 and 0.1 mM. Compound binding was calculated as the percentage of inhibition of the binding of a radioactively labeled ligand specific for each target. The compound enzyme inhibitory effect was calculated as the percentage of inhibition of control enzyme activity. Results showing inhibition higher than 40% were considered to represent significant effects of the tested compound. Results showing inhibition lower than 25% as obtained with 0.1 mM Visabron c (4–4) were not considered significant and were mostly attributable to the variability of the signal around the control level. In each experiment, the respective reference compound was tested concurrently with visabron c (4–4), and the data were compared with historical values determined at Eurofins. The experiment was statistically accepted in accordance with the Eurofins validation standard operating procedure.

SafetyScreen44 targets = assay: SafetyScreen44 off-target panel (44 binding, enzymatic and transporter assays); details: 1 mM; threshold of 40% for binding competition; Figure 5
Description: as §1

JAK3 = biological target: T1, JAK3 (Homo sapiens, UniProt P52333); assay: PhosphoSens CSox-based kinase assay, JAK3; assay type: biochemical; details: 1 mM, but not 0.1 mM; Figure 7
T1 construct: purchased Carna 08-046
T1 sequence (P52333 whole entry): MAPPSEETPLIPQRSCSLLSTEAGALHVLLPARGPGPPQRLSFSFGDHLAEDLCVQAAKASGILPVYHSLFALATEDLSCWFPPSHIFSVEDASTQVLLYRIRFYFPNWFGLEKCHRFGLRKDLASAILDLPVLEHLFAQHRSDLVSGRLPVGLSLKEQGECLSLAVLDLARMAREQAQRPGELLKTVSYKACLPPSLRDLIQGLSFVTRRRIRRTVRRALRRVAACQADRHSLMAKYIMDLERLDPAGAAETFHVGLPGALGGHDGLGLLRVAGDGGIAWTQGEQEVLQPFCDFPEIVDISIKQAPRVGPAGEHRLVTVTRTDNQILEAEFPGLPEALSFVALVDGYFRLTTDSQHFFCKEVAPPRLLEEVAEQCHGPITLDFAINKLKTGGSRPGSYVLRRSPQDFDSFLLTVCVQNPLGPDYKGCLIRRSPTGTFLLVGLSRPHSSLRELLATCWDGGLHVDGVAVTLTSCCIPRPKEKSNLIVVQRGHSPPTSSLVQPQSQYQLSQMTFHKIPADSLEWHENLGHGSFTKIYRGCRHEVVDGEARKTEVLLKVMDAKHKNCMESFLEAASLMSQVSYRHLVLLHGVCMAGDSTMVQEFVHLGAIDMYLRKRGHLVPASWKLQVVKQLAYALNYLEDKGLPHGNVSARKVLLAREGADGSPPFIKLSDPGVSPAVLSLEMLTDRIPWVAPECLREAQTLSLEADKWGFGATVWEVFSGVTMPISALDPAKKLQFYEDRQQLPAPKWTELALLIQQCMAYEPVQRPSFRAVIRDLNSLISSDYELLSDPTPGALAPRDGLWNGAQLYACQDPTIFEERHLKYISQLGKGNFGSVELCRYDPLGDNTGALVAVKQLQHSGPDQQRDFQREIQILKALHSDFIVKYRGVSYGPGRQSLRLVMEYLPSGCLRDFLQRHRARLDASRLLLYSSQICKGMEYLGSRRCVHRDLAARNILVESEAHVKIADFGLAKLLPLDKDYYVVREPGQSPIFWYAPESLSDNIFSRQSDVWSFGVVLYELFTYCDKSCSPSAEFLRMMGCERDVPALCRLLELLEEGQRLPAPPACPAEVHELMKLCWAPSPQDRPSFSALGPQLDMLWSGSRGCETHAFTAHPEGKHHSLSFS
Description: (§2) Kinase activity was measured using the PhosphoSenstechnology (AssayQuant Technologies Inc., Marlborough, MA) as detailed in the Supporting Information. […]
(§3) Visabron c (4-4) safety by in vitro evaluation using PhosphoSens - CSox based kinase assays:
(§4) A powerful method was used to measure the activity of recombinant protein kinases using a homogeneous and continuous (kinetic) format, where the level of chelation-enhanced fluorescence (CHEF) that is directly proportional to the amount of phosphorylated, real-time sensors consisting of sulfonamido-oxine (Sox) chromophore, linked to a peptide or protein substrates of selective kinases 6. […]
(§5) Kinase activity measurements: Kinase activity was measured continuously using the PhosphoSens® technology (AssayQuant Technologies Inc., Marlborough, MA) according to the manufacturers’ recommendations. This one-step homogeneous assay format uses chelation -enhanced fluorescence via optimized substrate sensors containing the unnatural fluorogenic amino -acid Sox. […]
(§6) Final reaction conditions : Protein kinase activity was determined in 54 mM HEPES, pH 7.5, 1 mM ATP, 1.2 mM DTT, 0.012% Brij-35, 0.52 mM EGTA, 10 mM MgCl2, 1% glycerol, 0.2mg/ml BSA, and 15 μM Sox -based sensor. […]

LynA = biological target: T2, LynA (Homo sapiens, UniProt P07948); assay: PhosphoSens CSox-based kinase assay, LynA; assay type: biochemical; details: 1 mM, but not 0.1 mM; Figure 7
T2 construct: purchased Carna 08-171
T2 sequence (P07948 whole entry): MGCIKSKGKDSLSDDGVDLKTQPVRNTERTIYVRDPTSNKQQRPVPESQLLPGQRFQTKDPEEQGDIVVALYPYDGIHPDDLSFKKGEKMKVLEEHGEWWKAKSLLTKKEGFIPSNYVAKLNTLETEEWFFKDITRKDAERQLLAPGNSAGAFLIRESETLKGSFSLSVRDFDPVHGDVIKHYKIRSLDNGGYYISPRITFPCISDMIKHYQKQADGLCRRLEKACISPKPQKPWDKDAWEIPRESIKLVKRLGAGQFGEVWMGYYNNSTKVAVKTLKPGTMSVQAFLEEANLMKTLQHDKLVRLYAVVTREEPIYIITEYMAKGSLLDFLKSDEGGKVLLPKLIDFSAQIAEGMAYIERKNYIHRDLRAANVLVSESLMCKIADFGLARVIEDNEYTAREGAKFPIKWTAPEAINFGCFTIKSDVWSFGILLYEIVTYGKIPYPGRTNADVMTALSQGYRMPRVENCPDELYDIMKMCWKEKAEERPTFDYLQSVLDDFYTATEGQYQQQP
Description: as §2, §3, §4, §5, §6

[2] = system: panel of 20 tyrosine protein kinases of immune cells; assay type: biochemical; details: concentration a hundred-fold higher than the IC50 for inhibition of α4β1 integrin (0.1 mM)
Description: as §2, §3, §4, §5, §6

CSCC[C@@H]1NC(=O)[C@H]([C@@H](C)O)NC(=O)CN(C(=O)[C@@H](N)CCCCN)CCCCNC(=O)NCCCCN(CC(=O)N[C@@H](CC(C)C)C(N)=O)C(=O)[C@H](CC(=O)O)NC(=O)[C@H](CC(C)C)NC1=O [visabron c (4–4)] (H-K[Nlys]TMLD[Nlys]L-NH2; linker 2-7 via CO)
Inhibition of cyclooxygenase (COX) enzymes [1]: moderately inhibited
Interaction with the majority of the physiological targets (SafetyScreen44 targets): did not interact
inhibition at 1000 µM (JAK3): 25 to 40%
inhibition at 1000 µM (LynA): 25 to 40%
Targeting of leukocyte tyrosine protein kinases [2]: did not target
